US6815460B2, “Process for preparing prodrugs of benzenesulfonamide-containing cox-2 inhibitors” (Pharmacia Corporation, priority 1996, dated 2004)
Where a name gives a salt, the structure may show the parent alone.

Tests used:
[1] = In vitro conversion of prodrugs by S9 liver fractions; format: in vitro ADME; conditions: purified S9 fractions (3 mg/ml), compound 10 ug/ml, 37° C., pH 7.2, 90 minutes, HPLC
Procedure: IN VITRO CONVERSION OF PRODRUGS
The conversion of the prodrugs by S9 liver fractions was determined by the following method. The S9 liver-fraction suspension (IIAM) was thawed and the suspension was stirred by vortex. The suspension was mixed with 12M urea at 1:7, v:v, (yielding […] final concentration) and further stirred by vortex. The S9 suspension solution was partially purified by solid phase extraction (Vac-Elut apparatus:C18 columns (Varian #1210-2001)) eluting with acetonitrile. The fractions were mixed by vortex and concentrated to dryness under nitrogen (no heat). The fractions were resuspended in 100 μl acetonitrile:phosphate buffer (8.3 mM, pH 7.2) (20:80).
The compounds were dissolved in water (0.2 ml, 10 ug/ml) and incubated at 37° C. (pH 7.2, 90 minutes) with purified S9 fractions (0.2 ml, 3 mg/ml). Conversion of the prodrug to the active COX-2 inhibitor was followed by HPLC (Beckmann System Gold, Novapak C18 column (3.9×150 mm), acetonitrile:phosphate buffer (8.3 mM, pH 7.2) (20:80-40:60), UV detection 240 nm). Quantitation of the conversion of the prodrug was determined by measurement of integrated HPLC peak area.

Male Sprague-Dawley rats [2] = assay: Rat Carrageenan-induced Analgesia Test; format: in vivo; conditions: dosed orally, inhibition of hyperalgesic foot withdrawal, three hours after carrageenan
Procedure: Rat Carrageenan-induced Analgesia Test
The rat carrageenan analgesia test was performed with materials, reagents and procedures essentially as described by Hargreaves, et al., (Pain, 32, 77 (1988)). Male Sprague-Dawley rats were treated as previously described for the Carrageenan Foot Pad Edema test. Three hours after the injection of the carrageenan, the rats were placed in a special plexiglass container with a transparent floor having a high intensity lamp as a radiant heat source, positionable under the floor. After an initial twenty minute period, thermal stimulation was begun on either the injected foot or on the contralateral uninjected foot. A photoelectric cell turned off the lamp and timer when light was interrupted by paw withdrawal. The time until the rat withdraws its foot was then measured. The withdrawal latency in seconds was determined for the control and drug-treated groups, and percent inhibition of the hyperalgesic foot withdrawal determined.

Male Sprague-Dawley rats [3] = assay: Rat Carrageenan Foot Pad Edema Test; format: in vivo; conditions: dosed orally one hour before carrageenan, foot volume three hours after carrageenan
Procedure: Rat Carrageenan Foot Pad Edema Test
The carrageenan foot edema test was performed with materials, reagents and procedures essentially as described by Winter, et al., (Proc. Soc. Exp. Biol. Med., 111, 544 (1962)). Male Sprague-Dawley rats were selected in each group so that the average body weight was as close as possible. Rats were fasted with free access to water for over sixteen hours prior to the test. The rats were dosed orally (1 mL) with compounds suspended in vehicle containing 0.5% methylcellulose and 0.025% surfactant, or with vehicle alone. One hour later a subplantar injection of 0.1 mL of 1% solution of carrageenan/sterile 0.9% saline was administered and the volume of the injected foot was measured with a displacement plethysmometer connected to a pressure transducer with a digital indicator. Three hours after the injection of the carrageenan, the volume of the foot was again measured. The average foot swelling in a group of drug-treated animals was compared with that of a group of placebo-treated animals and the percentage inhibition of edema was determined (Otterness and Bliven, Laboratory Models for Testing NSAIDs, in Non-steroidal Anti-Inflammatory Drugs, (J. Lombardino, ed. 1985)).

SMILES	Metabolism of Prodrugs: Parent (% remaining) [1]	melting point	further results
CCCC(=O)NS(=O)(=O)c1ccc(-c2c(-c3ccccc3)noc2C)cc1 [Example 25, N-[[4-(5-Methyl-3-phenylisoxazol-4-yl)phenyl]sulfonyl]butanamide, Sodium Salt]	0.8%	–	ANALGESIA % Inhibition @ 10 mg/kg body weight (Male Sprague-Dawley rats [2]): 33%; RAT PAW EDEMA % Inhibition @ 30 mg/kg body weight (Male Sprague-Dawley rats [3]): 60%
CC(=O)NS(=O)(=O)c1ccc(-c2c(-c3cccc(F)c3)noc2C)cc1 [Example 13, N-[[4-[3-(3-Fluorophenyl)-5-methylisoxazol-4-yl]phenyl]sulfonyl]acetamide]	–	144 to 145 °C	ANALGESIA % Inhibition @ 10 mg/kg body weight (Male Sprague-Dawley rats [2]): 61.5%; RAT PAW EDEMA % Inhibition @ 30 mg/kg body weight (Male Sprague-Dawley rats [3]): 58%
CC(=O)NS(=O)(=O)c1ccc(-c2c(-c3cccc(F)c3)noc2C)cc1 [Example 14, N-[[4-[3-(3-Fluorophenyl)-5-methylisoxazol-4-yl]phenyl]sulfonyl]acetamide, Sodium Salt]	63.4%	–	ANALGESIA % Inhibition @ 10 mg/kg body weight (Male Sprague-Dawley rats [2]; Sodium Salt): 41%; RAT PAW EDEMA % Inhibition @ 30 mg/kg body weight (Male Sprague-Dawley rats [3]; Sodium Salt): 65%
CCC(=O)NS(=O)(=O)c1ccc(-c2c(-c3ccccc3)noc2C)cc1 [Example 18, N-[[4-(5-Methyl-3-phenylisoxazol-4-yl]phenyl]sulfonyl]propanamide, Sodium Salt]	3.3%	–	–
CCCC(=O)NS(=O)(=O)c1ccc(-n2cc(C(F)(F)F)nc2-c2cccnc2C)cc1 [Example 9, N-[[4-[2-(2-Methylpyridin-3-yl)-4-(trifluoromethyl)-1H-imidazol-1-yl]phenyl]sulfonyl]butanamide]	–	250 to 252 °C	–
COC(=O)CCC(=O)NS(=O)(=O)c1ccc(-c2c(-c3ccccc3)noc2C)cc1 [Example 23, Methyl 4-[[[4-(5-methyl-3-phenylisoxazol-4-yl]phenyl]sulfonyl]amino]-4-oxobutanoate]	–	114.9 to 117.7 °C	–
CC(=O)NS(=O)(=O)c1ccc(-c2oc(C)nc2-c2ccccc2)cc1 [Example 48, N-[[4-(2-Methyl-4-phenyloxazol-5-yl)phenyl]sulfonyl]acetamide]	–	220.7 to 221 °C	–
CC(=O)NS(=O)(=O)c1ccc(C2=C(c3ccc(F)c(Cl)c3)CCC2)cc1 [Example 65, N-[[4-[2-(3-Chloro-4-fluorophenyl)cyclopenten-1-yl]phenyl]sulfonyl]acetamide]	–	127 to 129 °C	–
CC(=O)NS(=O)(=O)c1ccc(-c2oc(C)nc2-c2ccccc2)cc1 (as salt: sodium) [Example 49, N-[[4-(2-Methyl-4-phenyloxazol-5-yl)phenyl]sulfonyl]acetamide, Sodium Salt]	–	259.9 to 260 °C	–
